Legend:
[1] = test system: breast cancer models; details: daily by oral gavage, 70 mg/kg; cited from earlier work
[2] = test system: cellular lysyl oxidase (LOX) activity, MDA-MB-231 cells; experiment: Cell-based lysyl oxidase activity assay (Abcam kit); design: species or system human; details: read-out: cellular LOX activity
Source text: As the available LOX inhibitors are either not very potent or have toxicity, the inventors developed a robust screening pipeline shown in FIG. 28 to identify potent and safe LOX-specific and pan-LOX inhibitors. Briefly, a high-throughput cell-based LOX activity (Abcam) screen (HTS) was done for more than 5,000 drug-like compounds from the EXPRESS-Pick diversified library (4,480 molecules, ChemBridge) and Tocriscreen library of bioactive compounds (1,280 compounds, Tocris), each at a single concentration of 10 μM. […] The toxic molecules were counter screened with cell cytotoxicity assay and filtered out.
FIGS. 34. […] IC50 for cellular lysyl oxidase activity upon treatment of MDA-MB-231 cells with different LOX inhibitors. uM=microM.
For cell-based lysyl oxidase activity, fluorometric Lysly Oxidase Activity Assay Kit (Abcam, USA) was used according to manufacturer's instructions. Briefly, after the treatment, 50 μl of supernatant from each well was incubated with reagent mix and fluorescence measured in multimode-reader at Ex/Em=540/590 nm wavelength.

[3] = test system: kidney fibrosis, lung fibrosis, myelofibrosis and pancreatic cancer models; details: in vivo; cited from earlier work
[4] = human, in vivo; cited from earlier work
[5] = test system: MCF12A; experiment: Viability assay in normal cells; type: cell-based, human; details: normal breast cell line
Source text: (§1) FIG. 32. 6232 derivatives, 6403 and 6415, show no cytotoxicity in normal cells. Viability assay in normal breast cell line, MCF12A, human foreskin fibroblast cell line, HFF and human endothelial cell line, HUVEC treated with 6403 or 6415.

[6] = test system: MDA-MB-231 cells embedded in collagen I; experiment: ECM crosslinking by collagen and fibronectin immunofluorescence staining; type: cell-based, human
Description: FIG. 31. […] A. Inhibition of LOX activity in MDA-MB-231 cells treated with 5 μM of the LOX inhibitors. B. Doxorubicin sensitization with 6232 and its analogs, 6403 and 6415, in 3D collagen-I culture. C. Collagen and fibronectin staining of vehicle or 6232 or 6403 or 6415-treated MDA-MB-231 cells embedded in collagen I. BAPN is used as a positive control.
Immunofluorescence staining of cells was done in μ-Slide 8-well glass bottom chambers (Ibidi, Germany). Cells were fixed with 4% paraformaldehyde for 20 min, permeabilized with 0.5% Triton X-100 for 10 min and blocked in 5% BSA-PBS. Samples were incubated with primary (Collagen I, Fibronectin, F-actin, a-SMA) and secondary Alexa Fluor 647 or 488-labeled antibodies for 1.5 hours at room temperature. Cells were also counterstained with DAPI for 5 min. Images were acquired using ZEN 2012 SP5 (Black) LSM 700 (Carl Zeiss, DE).

[7] = test system: HUVEC; experiment: Viability assay in normal cells; type: cell-based; details: human endothelial cell line
Source text: as §1

[8] = test system: HFF; experiment: Viability assay in normal cells; type: cell-based; details: human foreskin fibroblast cell line
Source text: as §1

[9] = test system: LOXL2-mediated collagen oxidation and cross-linking; details: in vitro; cited from earlier work
[10] = target: T1, LOXL2 (Homo sapiens, UniProt Q9Y4K0); details: cited from earlier work
T1 sequence (Q9Y4K0 26-774): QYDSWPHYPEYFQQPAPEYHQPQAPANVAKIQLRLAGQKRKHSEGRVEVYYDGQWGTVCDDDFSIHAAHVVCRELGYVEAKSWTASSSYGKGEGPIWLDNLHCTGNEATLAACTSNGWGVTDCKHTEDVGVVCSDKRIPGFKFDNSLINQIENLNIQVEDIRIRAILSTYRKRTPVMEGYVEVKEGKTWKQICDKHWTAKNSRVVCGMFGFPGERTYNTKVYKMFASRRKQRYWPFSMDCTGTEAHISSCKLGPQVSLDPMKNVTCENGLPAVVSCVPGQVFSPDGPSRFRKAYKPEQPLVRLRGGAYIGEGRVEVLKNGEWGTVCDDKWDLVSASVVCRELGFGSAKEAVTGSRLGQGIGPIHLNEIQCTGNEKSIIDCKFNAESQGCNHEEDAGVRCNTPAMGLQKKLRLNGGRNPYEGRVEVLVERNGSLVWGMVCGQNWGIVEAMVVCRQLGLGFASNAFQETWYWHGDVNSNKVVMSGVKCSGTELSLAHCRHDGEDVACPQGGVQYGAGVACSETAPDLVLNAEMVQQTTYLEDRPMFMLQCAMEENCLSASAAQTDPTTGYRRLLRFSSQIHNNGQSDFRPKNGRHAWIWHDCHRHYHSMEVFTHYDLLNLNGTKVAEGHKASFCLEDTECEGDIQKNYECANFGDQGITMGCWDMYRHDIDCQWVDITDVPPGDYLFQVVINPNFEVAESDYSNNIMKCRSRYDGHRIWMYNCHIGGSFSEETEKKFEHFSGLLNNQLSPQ

[11] = target: LOXL3 (Homo sapiens, UniProt P58215); details: cited from earlier work
[12] = target: T1, LOXL2; design: Simtuzumab only targets extracellular LOXL2; host or cells: pancreatic cancer patients; details: in combination with gemcitabine; cited from earlier work

LOXL3, sequence (P58215 26-753, species assumed): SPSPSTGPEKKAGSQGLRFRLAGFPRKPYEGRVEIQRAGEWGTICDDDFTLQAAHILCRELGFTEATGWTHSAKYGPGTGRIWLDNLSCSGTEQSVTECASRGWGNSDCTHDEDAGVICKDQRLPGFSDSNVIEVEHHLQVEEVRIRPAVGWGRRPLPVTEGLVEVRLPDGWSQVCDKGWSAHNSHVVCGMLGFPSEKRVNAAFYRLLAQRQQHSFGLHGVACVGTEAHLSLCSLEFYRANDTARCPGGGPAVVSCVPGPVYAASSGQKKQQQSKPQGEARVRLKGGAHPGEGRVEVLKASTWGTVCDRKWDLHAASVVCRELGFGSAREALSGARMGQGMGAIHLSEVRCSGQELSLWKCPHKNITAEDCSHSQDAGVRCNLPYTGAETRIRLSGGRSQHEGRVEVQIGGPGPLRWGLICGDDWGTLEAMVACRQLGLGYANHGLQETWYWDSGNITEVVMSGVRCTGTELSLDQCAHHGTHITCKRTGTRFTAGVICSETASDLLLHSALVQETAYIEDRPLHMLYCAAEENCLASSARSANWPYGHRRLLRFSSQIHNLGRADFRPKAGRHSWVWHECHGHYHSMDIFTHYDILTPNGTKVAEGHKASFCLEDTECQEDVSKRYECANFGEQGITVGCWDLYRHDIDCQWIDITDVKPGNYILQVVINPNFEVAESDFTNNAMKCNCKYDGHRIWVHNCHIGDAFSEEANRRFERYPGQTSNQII

In the case of `CS(=O)(=O)c1cc(-c2ccccc2)cc(S(=O)(=O)c2ccc(CN)s2)c1` [CCT365623], the metastasis [1] is given as “reduced metastasis” and the tumor growth [1] is given as “decreased tumor growth”.

`COCCC(=O)Nc1ccc(Nc2nc(-c3sc(N)nc3C)cs2)cc1` [compound 6425, N-[4-[[4-(2-amino-4-methyl-thiazol-5-yl)thiazol-2-yl]amino]phenyl]-3-methoxy-propanamide] gave an IC50 [2] of 7.5 µM.

For `NC/C=C(\F)CS(=O)(=O)c1cccc2cccnc12` [PXS-5505], the fibrosis [3] is given as “significant reductions in fibrosis” and the tolerability [4] is given as “well tolerated”.

In the case of `Cc1nc(N)sc1-c1csc(Nc2ccc(S(N)(=O)=O)cc2)n1` [compound 6405, 4-((2′-amino-4′-methyl-[4,5′-bithiazol]-2-yl)amino)benzenesulfonamide], the “cell viability (cytotoxicity in normal cells)” value (“cell viability” for short) [5] is reported as “No significant effect on the viability”, the “ECM crosslinking (collagen and fibronectin staining)” value [6] is reported as “decrease in ECM crosslinking” and the “cell viability” value [7] is reported as “No significant effect on the viability”. The “cell viability” value [8] was “No significant effect on the viability”.

For `Cc1c(-c2cccc(S(=O)(=O)N(C)C)c2)c2ncccc2n1C/C(F)=C/CN.Cl.Cl` [PXS-5153A], the “LOXL2-mediated collagen oxidation and cross-linking” value [9] is given as “reduce LOXL2-mediated collagen oxidation and cross-linking, in a dose-dependent manner”, the enzyme inhibition [10] is given as “complete and irreversible enzyme inhibition” and the enzyme inhibition [11] is given as “complete and irreversible enzyme inhibition”.

In the case of `CCCCC(=O)Nc1ccc(Nc2nc(-c3sc(N)nc3C)cs2)cc1` [compound 6426, N-[4-[[4-(2-amino-4-methyl-thiazol-5-yl)thiazol-2-yl]amino]phenyl]pentanamide], the IC50 [2] is reported as 2 µM.

B1: Simtuzumab: non-competitive LOXL2 targeting humanized monoclonal antibody (antibody, chains of the INN, looked up, V domains shown)
VH: QVQLVQSGAEVKKPGASVKVSCKASGYAFTYYLIEWVRQAPGQGLEWIGVINPGSGGTNYNEKFKGRATITADKSTSTAYMELSSLRSEDTAVYFCARNWMNFDYWGQGTTVTVSS
VL: DIVMTQTPLSLSVTPGQPASISCRSSKSLLHSNGNTYLYWFLQKPGQSPQFLIYRMSNLASGVPDRFSGSGSGTDFTLKISRVEAEDVGVYYCMQHLEYPYTFGGGTKVEIK
In the case of B1, the clinical benefit [12] is given as “minimal” and the tolerability [12] is given as “well-tolerated”.
